Structures are written as SMILES. Entries after “also recorded” stand apart in the source; their conditions may differ.

One series deals with A549 lung cancer cells. Kind of series: AlamarBlue cell viability assay on A549 cells. The format is cell-based, human. Conditions: viable cells vs vehicle after 5 days; SMARCA4 frame shift deletion. The protocol:
(§1) Cell Viability Assay. To determine the effects of various drug treatments on oncogenic RAS mutant cells, an AlamarBlue assay (Invitrogen) was performed. 2500 cells were seeded in triplicate in 96-well plates one day prior to drug treatments. For TRI-102 and AML-RAS cells, fluorescence was measured at 72 hrs after drug addition. For other oncogenic RAS cells, fluorescence was measured 120 hrs after drug addition.
(§2) Cell Viability Assay. To determine the effects of various drug treatments on oncogenic RAS mutant cells, AlamarBlue assay (Invitrogen) was performed. 2500 cells were seeded in triplicate in 96-well plates one day prior to drug treatments. For TRI-102 and AML-RAS cells, fluorescence was measured at 72 hrs after drug addition. For other oncogenic RAS cells, fluorescence was measured 120 hrs after drug addition.

Series [1] relates to patient-derived cancer cells with oncogenic RAS mutations (lung, colon, pancreatic, melanocytic). The series can be described thus: AlamarBlue cell viability assay on panel of 17 patient-derived oncogenic RAS cancer cells. The format is cell-based, human. Particulars: panel of 17 lines; viable cells vs vehicle after 5 days. The procedure:
as §1, §2
(In general: The colour change of resazurin is a common sign of viable cells or microbes.)

Series [2] has as its system AML-RAS cells. The series can be described thus: AlamarBlue cell viability assay on AML-RAS cells. Conditions: 3 days after treatment; 20 mM LiCl, 5 uM Kenpaullone or 2 uM BIO. Type of series: cell-based, human. The procedure:
as §1, §2

Another series deals with A549 cells. Kind of series: Soft agar assay on A549 cells. The format is cell-based, human. Conditions: 20 mM LiCl. The procedure: (§3) Softagar Assay. Soft agar assays were performed in triplicate in 6-well plates. For each well, a bottom layer containing 1% agar in growth medium was added. Then 10,000 cells were plated in 0.5% agar in growth medium. Growth medium was added to each well and changed every 3 days. The colonies were counted after 3-4 weeks.

The subject of another series is AML-RAS xenografts. The series can be described thus: AML-RAS cell xenograft model. The format is in vivo, nude mice. Particulars: LiCl 340 mg/kg intraperitoneal every two days, 28 days. The procedure:
Xenograft. 10^6 AML-RAS cells were resuspended in PBS and inoculated subcutaneously into both flanks of 6-week old female nude mice (Charles River Laboratory). Seven days after transplantation, animals were treated with intraperitoneal injections of LiCl (340 mg/kg body weight), or an equal volume of vehicle (PBS) every two days. Tumor volume (mm3) and body weight (g) were measured every 2 days. The tumor volume was estimated by using caliper measurements based on formula W^2×L/2 (L is the length of the tumor, W is the width of the tumor). All experiments were approved by and conducted in compliance with the Yale Animal Resources Center and the Institutional Animal Care and Use Committee under protocol number 2008-10230.
Xenograft. 10^6 AML-RAS cells were resuspended in PBS and inoculated subcutaneously into both flanks of 6-week old female nude mice (Charles River Laboratory). Seven days after transplantation, animals were treated with intraperitoneal injections of LiCl (340 mg/kg body weight), or an equal volume of vehicle (PBS) every two days. Tumor volume (mm3) and body weight (g) were measured every 2 days. The tumor volume was estimated using caliper measurements based on formula W^2×L/2 (L is the length of the tumor, W is the width of the tumor). […]

Another series has as its system H1792 cells. The series can be described thus: Soft agar assay on H1792 cells. The format is cell-based, human. Particulars: 20 mM LiCl. The procedure: as §3
Series [3] deals with AML-RAS cells. The series can be described thus: Soft agar assay on AML-RAS cells. The format is cell-based, human. Particulars: 20 mM LiCl; colonies counted after 3-4 weeks. The procedure:
as §3

In the case of `O=C1Nc2cc(Br)ccc2/C1=C1/Nc2ccccc2/C1=N\O` [BIO, 6-bromoindirubin-30-oxime], in the series on A549 lung cancer cells, the “growth of A549 lung cancer cells” value is given as “not significantly suppressed”. In addition, the “growth of patient-derived cancer cells harboring oncogenic KRAS, NRAS or HRAS mutations” value (shortened to “growth … NRAS or HRAS mutations”) in series [1] is “suppresses the growth”. The “growth of the AML-RAS cells (viable cells)” value (“growth … (viable cells)” for short) with AML-RAS cells [2] is “specifically inhibited the growth”.

`[Cl-].[Li+]` [LiCl, lithium chloride]: the “anchorage-independent growth of the A549 cells in soft agar” value in the series with A549 cells is on record as “failed to suppress”. In addition, the “tumor growth in AML-RAS xenografts” value in the series on AML-RAS xenografts (nude mice) was “dramatically suppressed”. The “health of the recipient mice (body weight)” value in the series on AML-RAS xenografts (tumor-suppressing dose) is given as “not affected”. In addition, the “growth of A549 lung cancer cells” value in the series on A549 lung cancer cells was “not significantly suppressed”. Also, the “growth … NRAS or HRAS mutations” value in series [1] was “suppresses the growth”. The “anchorage-independent growth of the H1792 cells in soft agar” value in the series on H1792 cells is “completely inhibited; also recorded: dramatically inhibited”. The “growth … (viable cells)” value in the series with AML-RAS cells [2] is on record as “specifically impaired the growth”. Moreover, in the series with AML-RAS cells [3], the “anchorage-independent growth of the AML-RAS cells in soft agar” value was “prevented; also recorded: dramatically suppressed”.

For `O=C1Cc2c([nH]c3ccc(Br)cc23)-c2ccccc2N1` [Kenpaullone], the “growth of A549 lung cancer cells” value in the series on A549 lung cancer cells was “not significantly suppressed”. The “growth … NRAS or HRAS mutations” value in series [1] is reported as “suppresses the growth”. The “growth … (viable cells)” value with AML-RAS cells [2] is listed as “specifically inhibited the growth”.

(Values after patent US10407734B2, “Compositions and methods of using transposons” (Yale University, priority 2013, dated 2019).)
